# From patent US20250154145A1, “OXER1 ANTAGONISTS AND USES THEREOF” (Fairhaven Pharmaceuticals Ins., priority 2021, published 2025)
# System: neutrophils
# Assay: Neutrophil calcium flux assay (5-OXO-ETE-stimulated, Indo-1 fluorescence)
# Format: cell-based
# Conditions: 5-OXO-ETE-stimulated calcium flux
# Protocol: After isolation, neutrophils were resuspended in PBS without calcium and Magnesium (PBS −/−) at a concentration of 5×10^6 cells/ml. 2ul of Indo-1 (1 mM) were added per ml of cells. After incubation at 37° C. for 30 minutes, cells were washed twice in PBS −/− and resuspended at 5×10^6 cells/ml in assay buffer (HBSS 1× with calcium and magnesium and […]). In a 96-well Black optical clear bottom plate 100 μL of neutrophil were dispensed to each well. After incubation at 37° C. for 5 minutes, 50 μL of assay buffer or 3× antagonist were added and incubated for 5 min in a Tecan Spark plate reader (Tecan, Morrisville, NC). Baseline was measured for 30 sec (wavelength setup: excitation: 331 nm and emission:410 nm). When baseline is stable, 50p of 5-OXO-ETE at 200 nM (4×) or HBSS was added to appropriate wells. Fluorescence was measured every 5 seconds for 30 cycles. Results are expressed as Net fluorescence (FLU minus Background and injection peak). All data were analyzed using GraphPad Prism version 9 for Windows (GraphPad, San Diego, CA).
row,SMILES,IC50
1,CC(CC(=O)O)CC(=O)n1c(CCCCCCc2cccc(Cl)c2)cc2ncc(Cl)cc21 (stereo not drawn) [Compound I-305],< 100 nM

# Same assay, conditions: Neutrophil, 5-OXO-ETE-stimulated calcium flux
row,SMILES,IC50
1,CC(CC(=O)O)CC(=O)c1c(CCCCCC(O)c2ccc(F)cc2)n(C)c2ncc(Cl)cc12 (stereo not drawn) [Compound I-218],> 300 nM
2,CC(CC(=O)O)CC(=O)c1c(CCOCCNc2ccc(F)cc2)n(C)c2ccc(Cl)cc12 (stereo not drawn) [Compound I-220],> 300 nM
3,Cn1c(CCCCCCc2cccc(Cl)c2)c(C(=O)N2CC[C@H](c3nnn[nH]3)C2)c2cc(C#N)cnc21 [Compound I-223],< 100 nM
4,Cn1c(CCCCOCc2cccc(Cl)c2)c(C(=O)N2CC[C@H](c3nnn[nH]3)C2)c2cc(C#N)cnc21 [Compound I-224],100 to 300 nM
5,Cn1c(CCCCCC(O)c2cccc(Cl)c2)c(C(=O)N2CC[C@H](c3nnn[nH]3)C2)c2cc(C#N)cnc21 (stereo partly drawn) [Compound I-225],100 to 300 nM
6,CC(CC(=O)O)CC(=O)c1c(CCCCC#Cc2ccc(F)nc2)n(C)c2ncc(Cl)cc12 (stereo not drawn) [Compound I-227],> 300 nM
7,C[C@H](CC(=O)O)CC(=O)c1c(CCOCC#Cc2cccnc2)n(C)c2ncc(Cl)cc12 [Compound I-228],> 300 nM
8,C[C@H](CC(=O)O)CC(=O)c1c(CCOCC#Cc2ccc(F)nc2)n(C)c2ncc(Cl)cc12 [Compound I-229],100 to 300 nM
9,CC(CC(=O)O)CC(=O)c1c(CCCCOCc2cccc(F)c2)n(C)c2ncc(C#N)cc12 (stereo not drawn) [Compound I-231],< 100 nM
10,C[C@H](CC(=O)O)NC(=O)c1c(CCCCCCc2cccc(Cl)c2)n(C)c2ccc(Cl)cc12 [Compound I-237],> 300 nM
11,C[C@H](CC(=O)O)NC(=O)c1c(CCCCOCc2cccc(Cl)c2)n(C)c2ncc(C#N)cc12 [Compound I-238],> 300 nM
12,C[C@H](CC(=O)O)N(C)C(=O)c1c(CCCCCCc2cccc(Cl)c2)n(C)c2ccc(Cl)cc12 [Compound I-239],> 300 nM
13,C[C@H](CC(=O)O)N(C)C(=O)c1c(CCCCOCc2cccc(Cl)c2)n(C)c2ncc(C#N)cc12 [Compound I-240],> 300 nM
14,CC(CNC(=O)c1c(CCCCCCc2cccc(Cl)c2)n(C)c2ccc(Cl)cc12)C(=O)O (stereo not drawn) [Compound I-241],> 300 nM
15,CC(CNC(=O)c1c(CCCCOCc2cccc(Cl)c2)n(C)c2ncc(C#N)cc12)C(=O)O (stereo not drawn) [Compound I-242],> 300 nM
16,CC(CN(C)C(=O)c1c(CCCCCCc2cccc(Cl)c2)n(C)c2ccc(Cl)cc12)C(=O)O (stereo not drawn) [Compound I-243],> 300 nM
17,CC(CN(C)C(=O)c1c(CCCCOCc2cccc(Cl)c2)n(C)c2ncc(C#N)cc12)C(=O)O (stereo not drawn) [Compound I-244],> 300 nM
18,C[C@H](CC(=O)O)CC(=O)c1c(CCOCCNc2cccc(F)c2)n(C)c2ncc(C#N)cc12 [Compound I-246],100 to 300 nM
19,C[C@H](CC(=O)O)CC(=O)c1c(CCCCOCc2ccc(F)cc2)n(C)c2ncc(C#N)cc12 [Compound I-249],< 100 nM
20,CC(CC(=O)O)CC(=O)c1c(CCCCCCC#CC2CC(F)(F)C2)n(C)c2ccc(Cl)cc12 (stereo not drawn) [Compound I-278],< 100 nM
21,C[C@H](CC(=O)O)CC(=O)c1c(CCCCCCc2cccc(Cl)c2)n(CCO)c2ncc(C#N)cc12 [Compound I-279],< 100 nM
22,C[C@@H](CC(=O)O)CC(=O)c1c(CCCCCCc2cccc(Cl)c2)n(CCO)c2ncc(C#N)cc12 [Compound I-280],> 300 nM
23,CC(CC(=O)O)CC(=O)c1c(CCCCCCc2cccc(Cl)c2)n(CCN(C)C)c2ncc(C#N)cc12 (stereo not drawn) [Compound I-281],> 300 nM
24,CC(CC(=O)O)CC(=O)c1c(CCCCCCc2cccc(Cl)c2)n(C[C@H](O)CO)c2ncc(C#N)cc12 (stereo partly drawn) [Compound I-282],> 300 nM
25,CC(CC(=O)O)CC(=O)c1c(CCCCCCc2cccc(Cl)c2)n(C[C@@H](O)CO)c2ncc(C(N)=O)cc12 (stereo partly drawn) [Compound I-283],100 to 300 nM

row,SMILES,IC50
1,CC(CC(=O)O)CC(=O)c1c(CCCCCCc2cccc(Cl)c2)n(C[C@@H](O)CO)c2ncc(C#N)cc12 (stereo partly drawn) [Compound I-284],< 100 nM
2,CC(CC(=O)O)CC(=O)c1c(CCCCCCc2cccc(C#N)c2)n(C)c2ncc(Cl)cc12 (stereo not drawn) [Compound I-285],< 100 nM
3,CC(CC(=O)O)CC(=O)c1c(CCCCCC(O)c2cccc(C#N)c2)n(C)c2ncc(Cl)cc12 (stereo not drawn) [Compound I-286],< 100 nM
4,CC(CNC(=O)c1c(CCCCOCc2cccc(Cl)c2)n(C)c2ncc(C(N)=O)cc12)C(=O)O (stereo not drawn) [Compound I-287],> 300 nM
5,CC(CC(=O)O)CC(=O)c1c(CCOCCNc2cccc(Cl)c2)n(C)c2ncc(C#N)cc12 (stereo not drawn) [Compound I-288],100 to 300 nM
6,CC(CC(=O)O)CC(=O)c1c(CCOCCNc2ccccc2)n(C)c2ncc(C#N)cc12 (stereo not drawn) [Compound I-289],100 to 300 nM
7,CC(CC(=O)O)CC(=O)c1c(CCCCOCc2ccc(Cl)cc2)n(C)c2ncc(C#N)cc12 (stereo not drawn) [Compound I-290],100 to 300 nM
8,CC(CC(=O)O)CC(=O)c1c(CCCCOCc2ccc(F)c(Cl)c2)n(C)c2ncc(C#N)cc12 (stereo not drawn) [Compound I-291],< 100 nM
9,CC(CC(=O)O)CC(=O)c1c2cc(C#N)cnc2n(C)c1[C@H]1CC[C@@H](OCc2cccc(Cl)c2)CC1 (stereo partly drawn) [Compound I-292],> 300 nM
10,C[C@H](CC(=O)O)CC(=O)c1c(CCCCOCc2cccc(F)c2)n(C)c2ncc(C#N)cc12 [Compound I-293],< 100 nM
11,C[C@@H](CC(=O)O)CC(=O)c1c(CCCCOCc2cccc(F)c2)n(C)c2ncc(C#N)cc12 [Compound I-294],> 300 nM
12,CC(CC(=O)O)CC(=O)c1c(C2CCN(CCc3cccc(Cl)c3)CC2)n(C)c2ncc(C#N)cc12 (stereo not drawn) [Compound I-295],> 300 nM
13,CC(CC(=O)O)CC(=O)c1c(CCOCCNc2cccc(F)c2)n(C)c2ncc(C#N)cc12 (stereo not drawn) [Compound I-296],100 to 300 nM
14,CC(CC(=O)O)CC(=O)c1c(CCCCOCc2ccc(F)cc2)n(C)c2ncc(C#N)cc12 (stereo not drawn) [Compound I-297],< 100 nM
15,CC(=O)Nc1cccc(COCCCCc2c(C(=O)CC(C)CC(=O)O)c3cc(C#N)cnc3n2C)c1 (stereo not drawn) [Compound I-298],100 to 300 nM
16,CC(=O)N(C)c1cccc(COCCCCc2c(C(=O)CC(C)CC(=O)O)c3cc(C#N)cnc3n2C)c1 (stereo not drawn) [Compound I-299],100 to 300 nM
17,CC(CC(=O)NS(C)(=O)=O)CC(=O)c1c(CCCCOCc2cccc(Cl)c2)n(C)c2ccc(C#N)cc12 (stereo not drawn) [Compound I-300],> 300 nM
18,CC(CC(=O)O)CC(=O)c1c(CCCCCC(O)c2ccc(F)c(Cl)c2)n(C)c2ncc(C#N)cc12 (stereo not drawn) [Compound I-301],< 100 nM
19,COc1cccc(C(O)CCCCCc2c(C(=O)CC(C)CC(=O)O)c3cc(C#N)cnc3n2C)c1 (stereo not drawn) [Compound I-302],< 100 nM
20,Cn1c(CCCCCCc2cccc(Cl)c2)c(CN2CC[C@H](C(=O)O)C2)c2cc(Cl)ccc21 [Compound I-303],> 300 nM
21,CC(CC(=O)O)CC(=O)c1c(CCCCCCC=C=CC(F)(F)F)n(C)c2ccc(Cl)cc12 (stereo not drawn) [Compound I-304],> 300 nM
22,CC(CC(=O)O)CC(=O)c1c(CCCCCC(O)c2ccc(Cl)cc2)n(C)c2ncc(C#N)cc12 (stereo not drawn) [Compound I-310],100 to 300 nM
23,CC(CC(=O)O)CC(=O)c1c(CCCCCC(O)c2ccc(F)cc2)n(C)c2ncc(C#N)cc12 (stereo not drawn) [Compound I-311],> 300 nM
24,CC(=O)Nc1cccc(C(O)CCCCCc2c(C(=O)CC(C)CC(=O)O)c3cc(C#N)cnc3n2C)c1 (stereo not drawn) [Compound I-312],> 300 nM
25,CC(=O)N(C)c1cccc(C(O)CCCCCc2c(C(=O)CC(C)CC(=O)O)c3cc(C#N)cnc3n2C)c1 (stereo not drawn) [Compound I-313],> 300 nM
